We go through 50 compounds from ChEMBL document CHEMBL1287767, “Experimental solubility profiling of marketed CNS drugs, exploring solubility limit of CNS discovery candidate” (Bioorg Med Chem Lett, 2010).

≈ marks a conversion by molar mass, not a printed value. Bounds are passed on as bounds.

The nature of data set [1]: Solubility of the compound. It is filed as physicochemical.
Data set [2] in a line: Solubility of the compound in 0.1 M phosphate buffer at 600 uM at pH 7.4 after 24 hrs by LC/MS/MS analysis. The note with it: pH 7.4.
A short description of data set [3]: Solubility of the compound in water at pH 7. It counts as physicochemical.
Data set [4] can be described thus: Solubility of the compound in water. It is filed as physicochemical.
Data set [5] can be described thus: Solubility of the compound at pH 7.4. It counts as physicochemical. As to conditions: buffer.
A short description of data set [6]: Solubility of the compound in water at pH 7.4. It counts as physicochemical.
Data set [7] can be described thus: Solubility of the compound at pH 7.95. It is filed as physicochemical. The note with it: buffer.
Data set [8] in a line: Solubility of the compound in PBS at pH 7.4. It counts as physicochemical.
Data set [9] is described as follows: Solubility of the compound in Mcllvaine buffer at pH 7.4. It counts as physicochemical. The note with it: McIlvaine buffer.

On to `CCCN[C@H]1CCc2nc(N)sc2C1` [PRAMIPEXOLE], for which the solubility – broadly, the dissolved amount per volume that the medium holds – in [1] is more than 10000 µg/mL. Moreover, the solubility at 24 h, 600 µM in data set [2] (buffer) was more than 500 µM. Regarding `Cc1nnc2n1-c1ccc(Cl)cc1C(c1ccccc1)=NC2` [ALPRAZOLAM], the concentration in solution in data set [3] (solubility) came to 0.04 mg/mL (≈ 130 µM). Also, the solubility at 24 h, 600 µM in [2] (0.1 M phosphate buffer) amounted to 213 µM (≈ 65.8 µg/mL).

For the compound `CC1(C)O[C@@H]2[C@@H](CO[C@@]3(COS(N)(=O)=O)OC(C)(C)O[C@@H]23)O1` [TOPIRAMATE], in data set [4], the solubility is 9.8 mg/mL. In addition, in [2] (0.1 M phosphate buffer), the solubility at 24 h, 600 µM was more than 500 µM. For `O=C1Nc2ccc(Cl)cc2C(c2ccccc2Cl)=NC1O` (stereo not given) [LORAZEPAM], the concentration in solution in data set [4] (solubility) came to 0.08 mg/mL. In data set [2] (buffer), this compound gave a solubility at 24 h, 600 µM of 24 µM (≈ 7.71 µg/mL).

`CC[C@@H](C(N)=O)N1CCCC1=O` had a solubility in data set [4] of 1000 mg/mL. In data set [2] (0.1 M phosphate buffer), the solubility at 24 h, 600 µM is more than 500 µM.

In turn, `O=C1CN=C(c2ccccc2Cl)c2cc([N+](=O)[O-])ccc2N1` [CLONAZEPAM] showed a solubility in [4] of less than 0.1 mg/mL. This compound also registered a solubility at 24 h, 600 µM in data set [2] (buffer) of 30.2 µM (≈ 9.53 µg/mL).

`Cc1ccc(-c2nc3ccc(C)cn3c2CC(=O)N(C)C)cc1` [ZOLPIDEM] showed a solubility at 24 h, 600 µM in [2] (0.1 M phosphate buffer) of 260 µM (≈ 79.9 µg/mL). In data set [5], this compound registered a solubility of more than 250 µM. Consider `O=C1NC(=O)C(c2ccccc2)(c2ccccc2)N1` [PHENYTOIN], for which the concentration in solution in data set [4] (solubility) came to 0.032 mg/mL. This compound showed a solubility at 24 h, 600 µM in data set [2] (0.1 M phosphate buffer) of 80 µM (≈ 20.2 µg/mL).

Take `NCC1(CC(=O)O)CCCCC1` [GABAPENTIN]: the solubility at 24 h, 600 µM in data set [2] (0.1 M phosphate buffer) is more than 500 µM. The same compound came in with a solubility in data set [5] of 0.441 mg/mL. `CCOc1ccccc1OC(c1ccccc1)C1CNCCO1` (stereo not given) [REBOXETINE] gave a solubility at 24 h, 600 µM in data set [2] (0.1 M phosphate buffer) of more than 500 µM. On the same count and under the same terms, the result for `Cc1nc2n(c(=O)c1CCN1CCC(c3noc4cc(F)ccc34)CC1)CCCC2` [RISPERIDONE] reads more than 444 µM. In data set [6], `CCCCN1CCCCC1C(=O)Nc1c(C)cccc1C` (stereo not given) [BUPIVACAINE] came in with a solubility of 0.42 mg/mL (≈ 1460 µM). The same compound displayed a solubility at 24 h, 600 µM in data set [2] (0.1 M phosphate buffer) of 352 µM (≈ 102 µg/mL). In data set [2] (0.1 M phosphate buffer), `CCCN(CCC)C(=O)Cc1c(-c2ccc(Cl)cc2)nc2ccc(Cl)cn12` [ALPIDEM] had a solubility at 24 h, 600 µM of 0.75 µM (≈ 0.303 µg/mL). Further, the solubility in [5] was determined as 0.1 µM. For the compound `Cc1cc2c(s1)Nc1ccccc1N=C2N1CCN(C)CC1` [OLANZAPINE], the solubility at 24 h, 600 µM in data set [2] (0.1 M phosphate buffer) was more than 500 µM. On to `CN(C)CCC[C@@]1(c2ccc(F)cc2)OCc2cc(C#N)ccc21` [ESCITALOPRAM], for which, in [2] (0.1 M phosphate buffer), the solubility at 24 h, 600 µM was more than 500 µM.

As for `COc1cccc(C2(O)CCCCC2CN(C)C)c1` (stereo not given) [TRAMADOL], the solubility at 24 h, 600 µM in data set [2] (0.1 M phosphate buffer) is more than 500 µM. `O=C1CN=C(c2ccccn2)c2cc(Br)ccc2N1` [BROMAZEPAM] returned a solubility at 24 h, 600 µM in data set [2] (0.1 M phosphate buffer) of 334 µM (≈ 106 µg/mL).

The compound `CN1CCC[C@@H]1Cc1c[nH]c2ccc(CCS(=O)(=O)c3ccccc3)cc12` returned a solubility at 24 h, 600 µM in [2] (0.1 M phosphate buffer) of more than 500 µM. Regarding `CN1C2CCCC1CC(NC(=O)c1nn(C)c3ccccc13)C2` (stereo not given) [GRANISETRON], the solubility at 24 h, 600 µM in [2] (0.1 M phosphate buffer) is more than 500 µM. In data set [2] (0.1 M phosphate buffer), `CCc1nn(CCCN2CCN(c3cccc(Cl)c3)CC2)c(=O)n1CCOc1ccccc1` [NEFAZODONE] displayed a solubility at 24 h, 600 µM of 9.9 µM (≈ 4.65 µg/mL). In turn, `O=C1Cc2cc(CCN3CCN(c4nsc5ccccc45)CC3)c(Cl)cc2N1` [ZIPRASIDONE] registered a solubility in data set [1] of 0.08 µg/mL (≈ 0.194 µM). The compound also gave a solubility at 24 h, 600 µM in data set [2] (0.1 M phosphate buffer) of 1.05 µM (≈ 0.434 µg/mL). Turning to `CCC(=O)O[C@](Cc1ccccc1)(c1ccccc1)[C@H](C)CN(C)C` [PROPOXYPHENE], the solubility at 24 h, 600 µM in [2] (0.1 M phosphate buffer) turned out to be 250 µM (≈ 84.9 µg/mL). With `O=C1NCCN1CCN1CCC(c2cn(-c3ccc(F)cc3)c3ccc(Cl)cc23)CC1` [SERTINDOLE], the solubility at 24 h, 600 µM in data set [2] (0.1 M phosphate buffer) amounted to 18.1 µM (≈ 7.98 µg/mL). For the compound `CCN1CCC[C@H]1CNC(=O)c1c(OC)ccc(Br)c1OC` [REMOXIPRIDE], the solubility at 24 h, 600 µM in [2] (0.1 M phosphate buffer) was more than 500 µM. On to `Cc1ccc(C(=O)c2cc(O)c(O)c([N+](=O)[O-])c2)cc1` [TOLCAPONE], for which the solubility at 24 h, 600 µM in [2] (0.1 M phosphate buffer) is more than 500 µM. In data set [5], the concentration in solution (solubility) came to 0.115 mg/mL. For `CN1C[C@H](C(=O)N[C@]2(C)O[C@@]3(O)[C@@H]4CCCN4C(=O)[C@H](Cc4ccccc4)N3C2=O)C[C@@H]2c3cccc4[nH]cc(c34)C[C@H]21` [DIHYDROERGOTAMINE], the solubility at 24 h, 600 µM in data set [2] (0.1 M phosphate buffer) stood at 37 µM (≈ 21.6 µg/mL). On the same count and under the same terms, to `CCCCCc1cc(O)c2c(c1)OC(C)(C)[C@@H]1CCC(C)=C[C@@H]21` [DRONABINOL] belongs more than 500 µM; to `CCc1cc2c(s1)-n1c(C)nnc1CN=C2c1ccccc1Cl` [ETIZOLAM], more than 480 µM; to `CN1CCN(C2=Nc3cc(Cl)ccc3Nc3ccccc32)CC1` [CLOZAPINE], more than 420 µM. On the same count and under the same terms, to `O=C1CC2(CCCC2)CC(=O)N1CCCCN1CCN(c2ncccn2)CC1` [BUSPIRONE] belongs more than 500 µM. For the compound `Cc1ncc2n1-c1ccc(Cl)cc1C(c1ccccc1F)=NC2` [MIDAZOLAM], the solubility at 24 h, 600 µM in data set [2] (0.1 M phosphate buffer) is 392 µM (≈ 128 µg/mL). This compound showed a solubility in [7] of 0.055 mg/mL (≈ 169 µM). `Nc1c2c(nc3ccccc13)CCCC2` [TACRINE] registered a solubility in [4] of 0.217 mg/mL. In data set [2] (buffer), this compound returned a solubility at 24 h, 600 µM of more than 500 µM.

Turning to `COC1=C(OC)C(=O)C(CCCCCCCCCCO)=C(C)C1=O` [IDEBENONE], in [4], the concentration in solution (solubility) came to 23.6 µM. The same compound came in with a solubility at 24 h, 600 µM in data set [2] (0.1 M phosphate buffer) of 16 µM (≈ 5.42 µg/mL). Regarding `CC(NC(C)(C)C)C(=O)c1cccc(Cl)c1` (stereo not given) [BUPROPION], the solubility in [8] (PBS, read-out: solubility) came out at 10 mg/mL (≈ 41700 µM). In data set [2] (0.1 M phosphate buffer), this compound displayed a solubility at 24 h, 600 µM of 328 µM (≈ 78.6 µg/mL). Turning to `NC(=O)N1c2ccccc2CC(=O)c2ccccc21` [OXCARBAZEPINE], the solubility in data set [4] worked out at 0.308 mg/mL. Also, the solubility at 24 h, 600 µM in data set [2] (0.1 M phosphate buffer) came to 245 µM (≈ 61.8 µg/mL).

Turning to `OC[C@@H](O)CN1CCN(c2ccccc2)CC1` [LEVODROPROPIZINE], the solubility at 24 h, 600 µM in data set [2] (0.1 M phosphate buffer) is more than 500 µM.

Turning to `CN1CCN2c3ncccc3Cc3ccccc3C2C1` (stereo not given) [MIRTAZAPINE], the solubility at 24 h, 600 µM in data set [2] (0.1 M phosphate buffer) was more than 500 µM. On the same count and under the same terms, to `CN1CCN(C(=O)OC2c3nccnc3C(=O)N2c2ccc(Cl)cn2)CC1` (stereo not given) [ZOPICLONE] belongs 219 µM (≈ 85.2 µg/mL). For the compound `Nc1nnc(-c2cccc(Cl)c2Cl)c(N)n1` [LAMOTRIGINE], the solubility in data set [9] worked out at 0.00048 mg/mL (≈ 1.87 µM). For the same compound, the solubility at 24 h, 600 µM in [2] (0.1 M phosphate buffer) was found to be 307 µM (≈ 78.6 µg/mL).

In data set [2] (0.1 M phosphate buffer), `Oc1ccc2c(c1)[C@@]13CCCC[C@@]1(O)[C@@H](C2)N(CC1CCC1)CC3` [BUTORPHANOL] showed a solubility at 24 h, 600 µM of more than 500 µM.

Take `CC(C)Cc1ccc(C(C)C(=O)O)cc1` (stereo not given) [IBUPROFEN]: the solubility in data set [8] (buffer) came out at 6.02 mg/mL (≈ 29200 µM). The solubility at 24 h, 600 µM in [2] (buffer) is more than 500 µM. In turn, `Fc1ccccc1C1=NCC(=S)N(CC(F)(F)F)c2ccc(Cl)cc21` [QUAZEPAM] had a solubility at 24 h, 600 µM in [2] (0.1 M phosphate buffer) of 0.3 µM (≈ 0.116 µg/mL). As for `OCCOCCN1CCN(C2=Nc3ccccc3Sc3ccccc32)CC1` [QUETIAPINE], the solubility at 24 h, 600 µM in [2] (buffer) stood at 310 µM (≈ 119 µg/mL). `NS(=O)(=O)Cc1noc2ccccc12` [ZONISAMIDE]: the solubility at 24 h, 600 µM in data set [2] (0.1 M phosphate buffer) was more than 500 µM.

`O=C(NCCN1CCOCC1)c1ccc(Cl)cc1` [MOCLOBEMIDE] had a solubility at 24 h, 600 µM in [2] (0.1 M phosphate buffer) of more than 500 µM. In the case of `Cc1ccsc1C(=CCCN1CCC[C@@H](C(=O)O)C1)c1sccc1C` [TIAGABINE], the solubility at 24 h, 600 µM in [2] (0.1 M phosphate buffer) was more than 500 µM. Same read-out and setting: to `C=CCN1CCc2nc(N)sc2CC1` [TALIPEXOLE] belongs 133 µM (≈ 27.8 µg/mL). In data set [2] (0.1 M phosphate buffer), `COc1ccc(C(=O)N2CCCC2=O)cc1` gave a solubility at 24 h, 600 µM of 500 µM (≈ 110 µg/mL). In [2] (0.1 M phosphate buffer), `O=C1CC[C@@]2(O)[C@H]3Cc4ccc(O)c5c4[C@@]2(CCN3CC2CC2)[C@H]1O5` [NALTREXONE] displayed a solubility at 24 h, 600 µM of more than 500 µM.

With `CN(C)CCc1c[nH]c2ccc(C[C@H]3COC(=O)N3)cc12` [ZOLMITRIPTAN], the solubility at 24 h, 600 µM in [2] (0.1 M phosphate buffer) is more than 500 µM.
